According to US12077503B2, “Substituted cyclic amides and their use as herbicides” (FMC CORPORATION, priority 2015, dated 2024):

Legend:
Type in all cases: in vivo
[1] = system: barnyardgrass (Echinochloa crus-galli); assay: Test G Post-Emergence Protocol; details: Echinochloa crus-galli, post-emergence, 312 h
Summary of the method: (§1)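 Eight days post-sowing, plants received a spray of test compound (acetone/water 50:50, 0.5% Tween 20) at 15.625, 62.5 or 250 g/ha. Glasshouse regime thereafter: 24/16 °C, 14 h light, 65% humidity. Assessment after 13 days on a 0–100 damage scale.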

[2] = system: redroot pigweed (Amaranthus retroflexus); assay: Test G Post-Emergence Protocol; details: Amaranthus retroflexus, post-emergence, 312 h
Summary of the method: as §1

[3] = system: giant foxtail (Setaria faberi); assay: Test G Post-Emergence Protocol; details: Setaria faberi, post-emergence, 312 h
Summary of the method: as §1

[4] = system: velvetleaf (Abutilon theophrasti); assay: Test G Post-Emergence Protocol; details: Abutilon theophrasti, post-emergence, 312 h
Summary of the method: as §1

corn (Zea mays) [5] = assay: Test G Post-Emergence Protocol; details: Zea mays, post-emergence, 312 h
Summary of the method: as §1

[6] = system: ivy-leaved morning glory (Ipomoea hederacea); assay: Test G Post-Emergence Protocol; details: Ipomoea, post-emergence, 312 h
Summary of the method: as §1

[7] = system: barnyardgrass (Echinochloa crus-galli); assay: Test G Pre-Emergence Protocol; details: Echinochloa crus-galli, pre-emergence, 312 h, evaluated after 13 days
Summary of the method: (§2)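 Scores are visual damage ratings from 0 (no damage) to 100 (total plant kill), taken 13 days after treatment. Compound was sprayed one day post-sowing at 15.625, 62.5 or 250 g/ha in 50:50 acetone/water with 0.5% Tween 20.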

[8] = system: redroot pigweed (Amaranthus retroflexus); assay: Test G Pre-Emergence Protocol; details: Amaranthus retroflexus, pre-emergence, 312 h, evaluated after 13 days
Summary of the method: as §2

[9] = system: giant foxtail (Setaria faberi); assay: Test G Pre-Emergence Protocol; details: Setaria faberi, pre-emergence, 312 h, evaluated after 13 days
Summary of the method: as §2

[10] = system: velvetleaf (Abutilon theophrasti); assay: Test G Pre-Emergence Protocol; details: Abutilon theophrasti, pre-emergence, 312 h, evaluated after 13 days
Summary of the method: as §2

corn (Zea mays) [11] = assay: Test G Pre-Emergence Protocol; details: Zea mays, pre-emergence, 312 h, evaluated after 13 days
Summary of the method: as §2

[12] = system: ivy-leaved morning glory (Ipomoea hederacea); assay: Test G Pre-Emergence Protocol; details: Ipomoea, pre-emergence, 312 h, evaluated after 13 days
Summary of the method: as §2

`CN1C[C@@H](c2ccc(C(F)(F)F)cc2)[C@H](C(=O)Nc2cn[nH]c2)C1=O` (racemic) [Compound 1646] was tested, and the pest or weed control at 15.625 g/ha ([1]; 15.625 g ai/ha, evaluated after 13 days (100=total damage to plant; 0=no damage to plant), read-out: Barnyardgrass damage rating) was 0%, the pest or weed control at 62.5 g/ha ([1]; 62.5 g ai/ha, evaluated after 13 days, read-out: Barnyardgrass damage rating (100=total damage to plant; 0=no damage to plant)) was 0% and the pest or weed control at 250 g/ha ([1]; 250 g ai/ha, evaluated after 13 days, read-out: damage to plant, Barnyardgrass (100=total damage to plant; 0=no damage to plant)) was 0%. For the same compound, the pest or weed control at 15.625 g/ha ([2]; 15.625 g ai/ha, evaluated after 13 days (100=total damage to plant; 0=no damage to plant), read-out: Pigweed, Redroot damage rating) was 0%, the pest or weed control at 62.5 g/ha ([2]; 62.5 g ai/ha, evaluated after 13 days, read-out: Pigweed, Redroot damage rating (100=total damage to plant; 0=no damage to plant)) was 0% and the pest or weed control at 250 g/ha ([2]; 250 g ai/ha, evaluated after 13 days, read-out: damage to plant, Pigweed, Redroot (100=total damage to plant; 0=no damage to plant)) was 0%. The pest or weed control at 15.625 g/ha ([3]; 15.625 g ai/ha, evaluated after 13 days (100=total damage to plant; 0=no damage to plant), read-out: Foxtail, Giant damage rating) was 0%, the pest or weed control at 62.5 g/ha ([3]; 62.5 g ai/ha, evaluated after 13 days, read-out: Foxtail, Giant damage rating (100=total damage to plant; 0=no damage to plant)) was 10% and the pest or weed control at 250 g/ha ([3]; 250 g ai/ha, evaluated after 13 days, read-out: damage to plant, Foxtail, Giant (100=total damage to plant; 0=no damage to plant)) was 20%. It also gave a pest or weed control at 15.625 g/ha ([4]; 15.625 g ai/ha, evaluated after 13 days (100=total damage to plant; 0=no damage to plant), read-out: Velvetleaf damage rating) of 0%, a pest or weed control at 62.5 g/ha ([4]; 62.5 g ai/ha, evaluated after 13 days, read-out: Velvetleaf damage rating (100=total damage to plant; 0=no damage to plant)) of 0% and a pest or weed control at 250 g/ha ([4]; 250 g ai/ha, evaluated after 13 days, read-out: damage to plant, Velvetleaf (100=total damage to plant; 0=no damage to plant)) of 0%. For the same compound, the plant injury at 15.625 g/ha (corn (Zea mays) [5]; 15.625 g ai/ha, evaluated after 13 days (100=total damage to plant; 0=no damage to plant), read-out: Corn damage rating) was 0%, the plant injury at 62.5 g/ha (corn (Zea mays) [5]; 62.5 g ai/ha, evaluated after 13 days, read-out: Corn damage rating (100=total damage to plant; 0=no damage to plant)) was 0% and the plant injury at 250 g/ha (corn (Zea mays) [5]; 250 g ai/ha, evaluated after 13 days, read-out: damage to plant, Corn (100=total damage to plant; 0=no damage to plant)) was 0%. It also gave a pest or weed control at 15.625 g/ha ([6]; 15.625 g ai/ha, evaluated after 13 days (100=total damage to plant; 0=no damage to plant), read-out: Morningglory, Ivy-leaved damage rating) of 0%, a pest or weed control at 62.5 g/ha ([6]; 62.5 g ai/ha, evaluated after 13 days, read-out: Morningglory, Ivy-leaved damage rating (100=total damage to plant; 0=no damage to plant)) of 0% and a pest or weed control at 250 g/ha ([6]; 250 g ai/ha, evaluated after 13 days, read-out: damage to plant, Morningglory, Ivy-leaved (100=total damage to plant; 0=no damage to plant)) of 0%. For the same compound, the pest or weed control at 15.625 g/ha ([7]; 15.625 g ai/ha, read-out: Barnyard grass damage rating (100=total damage to plant; 0=no damage to plant)) was 0%, the pest or weed control at 62.5 g/ha ([7]; 62.5 g ai/ha, 100=total damage to plant, 0=no damage to plant, read-out: plant damage rating, Barnyardgrass) was 0% and the pest or weed control at 250 g/ha ([7]; 250 g ai/ha, read-out: Barnyardgrass damage rating (100=total damage to plant; 0=no damage to plant)) was 0%. It also gave a pest or weed control at 15.625 g/ha ([8]; 15.625 g ai/ha, read-out: Pigweed, Redroot damage rating (100=total damage to plant; 0=no damage to plant)) of 0%, a pest or weed control at 62.5 g/ha ([8]; 62.5 g ai/ha, 100=total damage to plant, 0=no damage to plant, read-out: plant damage rating, Pigweed, Redroot) of 0% and a pest or weed control at 250 g/ha ([8]; 250 g ai/ha, read-out: Pigweed, Redroot damage rating (100=total damage to plant; 0=no damage to plant)) of 0%. For the same compound, the pest or weed control at 15.625 g/ha ([9]; 15.625 g ai/ha, read-out: Foxtail, Giant damage rating (100=total damage to plant; 0=no damage to plant)) was 0%, the pest or weed control at 62.5 g/ha ([9]; 62.5 g ai/ha, 100=total damage to plant, 0=no damage to plant, read-out: plant damage rating, Foxtail, Giant) was 0% and the pest or weed control at 250 g/ha ([9]; 250 g ai/ha, read-out: Foxtail, Giant damage rating (100=total damage to plant; 0=no damage to plant)) was 0%. For the same compound, the pest or weed control at 15.625 g/ha ([10]; 15.625 g ai/ha, read-out: Velvetleaf damage rating (100=total damage to plant; 0=no damage to plant)) was 0%, the pest or weed control at 62.5 g/ha ([10]; 62.5 g ai/ha, 100=total damage to plant, 0=no damage to plant, read-out: plant damage rating, Velvetleaf) was 0% and the pest or weed control at 250 g/ha ([10]; 250 g ai/ha, read-out: Velvetleaf damage rating (100=total damage to plant; 0=no damage to plant)) was 0%. It also gave a plant injury at 15.625 g/ha (corn (Zea mays) [11]; 15.625 g ai/ha, read-out: Corn damage rating (100=total damage to plant; 0=no damage to plant)) of 0%, a plant injury at 62.5 g/ha (corn (Zea mays) [11]; 62.5 g ai/ha, 100=total damage to plant, 0=no damage to plant, read-out: plant damage rating, Corn) of 0% and a plant injury at 250 g/ha (corn (Zea mays) [11]; 250 g ai/ha, read-out: Corn damage rating (100=total damage to plant; 0=no damage to plant)) of 0%. For the same compound, the pest or weed control at 15.625 g/ha ([12]; 15.625 g ai/ha, read-out: Morning-glory, Ivy-leaved damage rating (100=total damage to plant; 0=no damage to plant)) was 0%, the pest or weed control at 62.5 g/ha ([12]; 62.5 g ai/ha, 100=total damage to plant, 0=no damage to plant, read-out: plant damage rating, Morningglory, Ivy-leaved) was 0% and the pest or weed control at 250 g/ha ([12]; 250 g ai/ha, read-out: Morningglory, Ivy-leaved damage rating (100=total damage to plant; 0=no damage to plant)) was 0%.
